The values below are quoted from earlier work in publication PMC2975871 (The FEBS journal, 2010).

≈ marks a conversion by molar mass, not a printed value.

`CC(C)CN(C[C@@H](O)[C@H](Cc1ccccc1)NC(=O)O[C@H]1CCOC1)S(=O)(=O)c1ccc(N)cc1` [amprenavir]: the “increased IC50” value with I54M mutation is reported as 6 fold.

Turning to `CC(C)(C)NC(=O)[C@@H]1CN(Cc2cccnc2)CCN1C[C@@H](O)C[C@@H](Cc1ccccc1)C(=O)N[C@H]1c2ccccc2C[C@H]1O` [IDV, indinavir], the decreased inhibition with PR with mutation I50V is 50 fold.

Take `CC(C)(C)NC(=O)[C@@H]1C[C@@H]2CCCC[C@@H]2CN1C[C@@H](O)[C@H](Cc1ccccc1)NC(=O)[C@H](CC(N)=O)NC(=O)c1ccc2ccccc2n1` [SQV, saquinavir]: the water solubility is 36 µg/mL (≈ 53.7 µM). For the same compound, in the data set with PR with mutation I50V, the decreased inhibition is listed as 20 fold.

As for `CC(C)CN(C[C@@H](O)[C@H](Cc1ccccc1)NC(=O)O[C@H]1CO[C@H]2OCC[C@H]21)S(=O)(=O)c1ccc(N)cc1` [DRV, darunavir], the “worse inhibition relative to wild type enzyme” value with PR with mutation I50V is 9 fold.
